The record followed here is ChEMBL document CHEMBL1152159, “Possible involvement of radical intermediates in the inhibition of cysteine proteases by allenyl esters and amides” (Bioorg Med Chem Lett, 2008).

The nature of data set [1]: Dissociation constant, pKa of the compound. The format is physicochemical.
In data set [2] the target is Cathepsin B (Homo sapiens, UniProt P07858). Briefly: Inhibition of cathepsin B in oxygen free condition.
In data set [3] the test system is Rattus norvegicus. Kind of data set: Inhibition of water-immersion stress-induced ulcer formation in rat at 3 mg/kg. It is filed as functional.
The test system of data set [4] is Rattus norvegicus. Briefly: Inhibition of water-immersion stress-induced ulcer formation in rat at 1 mg/kg. It is filed as functional.
Data set [5] has as its system Rattus norvegicus. Kind of data set: Inhibition of water-immersion stress-induced ulcer formation in rat at 10 mg/kg. It is filed as functional.
Data set [6] in a line: Inhibition of urease.
Data set [7] deals with Rattus norvegicus. Briefly: Inhibition of water-immersion stress-induced ulcer formation in rat at 30 mg/kg. Particulars: read-out: INH.

One may read the pKa as the pH at which an ionisable group is half protonated. Lower therefore signals a group that gives up its proton readily. Regarding `N[C@@H](CCC(=O)N[C@@H](CS)C(=O)NCC(=O)O)C(=O)O` [GLUTATHIONE], in data set [1], the pKa came out at 8.7.

One may read the IC50 as the concentration at which inhibition is half-maximal. For the compound `CCOC(=O)C(C)=C=C(c1ccccc1)c1ccccc1`, the IC50 in data set [2] worked out at 232 µM; in data set [6], 1.1 µM. For the same compound, the inhibition in vivo at 3 mg/kg in data set [3] worked out at 52%. This compound came in with an inhibition in vivo at 1 mg/kg in data set [4] of 40%. In data set [5], this compound displayed an inhibition in vivo at 10 mg/kg of 87%.

Regarding `CN/C(=N\CCSCc1nc[nH]c1C)NC#N` [CIMETIDINE], in data set [7], the inhibition in vivo at 30 mg/kg stood at 74%.

In data set [3], `NC(N)=Nc1nc(CSCC/C(N)=N/S(N)(=O)=O)cs1` [FAMOTIDINE] returned an inhibition in vivo at 3 mg/kg of 59%.
